Data published in US20230416329A1, “A PEPTIDE WITH DISULFIDE BONDS AND INHIBITORY ACTIVITY AGAINST SERINE PROTEASES, DERIVED HYBRID PEPTIDES THEREOF, AND USES THEREOF” (INSTITUTE OF MATERIA MEDICA , CHINESE ACADEMY OF MEDICAL …, priority 2020, published 2023).
Bridge positions count the residues as written; N and C are the ends. Peptide text beside a SMILES is read from it.

Target: α-chymotrypsin (Bos taurus, UniProt P00766)
Assay: Chymotrypsin inhibitory activity of peptides (AAPFpNA hydrolysis; IC50, Ki, residual activity)
Format: biochemical
Conditions: for Ki: Ki=IC50/(1+S/Km), Km 0.38 mM; for IC50: chymotrypsin 30 nM, AAPFpNA 0.5 mM
Experimental: The inhibition constants of various synthetic active peptide inhibitors (molecular scaffolds) against seine proteases were measured. The substrates N-succinyl-Ala-Ala-Pro-Phe-p-nitroaniline (AAPFpNA), Nα—Benzoyl-L-arginine-4-nitroaniline hydrochloride (BApNA) and N-succinyl-[…] (AAApNA) are used in competitive binding reaction to determine the inhibitory activities against α-chymotrypsin, bovine trypsin, and porcine pancreatic elastase, respectively. Experiments for α-chymotrypsin and bovine trypsin inhibition were measured in 20 mM CaCl2, 50 mM Tris-HCl buffer (pH 7.8), and that for porcine elastase inhibition was measured in 50 mM Tris-HCl buffer (pH 8.0). The concentration of the peptide was measured using optical density (OD) at 280 nm. The Michaelis constant (Km) of the enzyme hydrolysis substrate is calculated from the initial rate of substrate hydrolysis at 405 nm. The absorbance value of the substrate was measured at 405 nm after complete hydrolysis. All data were processed using nonlinear regression.
• (1) Added a total 190 μL of reaction buffer (20 mM CaCl2, 50 mM Tris-HCl (pH 7.8)) into the 96 well plate, followed by preheating at 37° C. for 15 min. Then added 2 μL of different concentrations of substrates (p-Nitroanilide, pNA, 0.5% in DMSO), and mixed by centrifugation at 500 rpm for 1 min. Finally, the plate was incubated at 37° C. for 20 min, and the absorbance value at 405 nm was measured. In the 200 μL of reaction system, the final concentrations of pNA were 0, 0.025, 0.05, 0.075, 0.1, 0.125, 0.15, 0.25, and 0.3 mM, respectively. Make three repetitions for each concentration and plot the OD405 m value with pNA concentration to obtain the standard curve. • (2) Added a total 190 μL of reaction buffer (20 mM CaCl2, 50 mM Tris-HCl (pH 7.8)) and 8 μL of 0.75 μM chymotrypsin into the 96 well plate, followed by preheating at 37° C. for 5 min. Then added 2 μL of different concentrations of substrates (AAPFpNA, dissolved in DMSO), and mixed by centrifugation at 500 rpm for 1 min. Finally, the plate was incubated at 37° C. for 20 min, and the absorbance value at 405 nm was measured. In the 200 μL of reaction system, the final concentrations of AAPFpNA were 0, 0.125, 0.25, 0.285, 0.33, 0.4, and 0.5 mM, respectively. Make three repetitions for each concentration and plot the OD405 nm value with time to obtain the corresponding curve. Divide the slope of the curve by the slope of the standard curve and the enzyme concentration to obtain the initial velocity V0 (mM/(min*mM protein). Plot the initial velocity V0 with the concentration of substrate AAPFpNA using Prism software, and the Michaelis constant Km value of chymotrypsin hydrolyzing AAPFpNA was obtained.
• (1) Added a total 190 μL of reaction buffer (20 mM CaCl2, 50 mM Tris-HCl (pH 7.8)), different concentrations of anti-chymorypsin peptides (CHs) into the pre-cold 96 well plate, followed by preheating at 37° C. for 5 min and centrifugated at 500 rpm for 1 min and allowed to stand for 4 minutes. Then added 8 μL of 750 nM chymotrypsin and incubated at 37° C. for 10 min, and centrifugated at 500 rpm for 1 min and allowed to stand for 9 minutes. Finally, added 2 μL of 50 mM AAPFpNA, and mixed by centrifugation at 500 rpm for 1 min. The plate was incubated at 37° C. for 90 min, and the absorbance value at 405 nm was measured. Three repetitions were made, and only reaction buffer and substrate were added in the blank control as the minimum absorption value (Min OD405 nm); Only reaction buffer, enzyme and substrate were added in the negative control as the maximum absorption value (Max OD405). • (2) In the 200 μL of reaction system, the final concentrations of chymotrypsin and AAPFpNA were 30 nM and 0.5 mM, respectively. • (3) Data statistics
Residual activity of enzyme (%)=(1−(Max OD405 nm−Sample OD405 nm)/(Max OD405 nm−Min OD405 nm))*100 […]

Structure (SMILES)	Ki [µM]	IC50 [µM]	inhibitory activity against chymotrypsin (in words)	also measured
CC[C@H](C)[C@@H]1NC(=O)[C@H](CO)NC(=O)[C@H](Cc2ccc(O)cc2)NC(=O)[C@H]([C@@H](C)O)NC(=O)[C@H](C)NC(=O)[C@H](CO)NC(=O)[C@@H](N)CSSC[C@@H](C(=O)N[C@@H](Cc2ccc(O)cc2)C(=O)NCC(=O)O)NC(=O)[C@H](CCC(N)=O)NC(=O)[C@@H]2CCCN2C(=O)[C@@H]2CCCN2C1=O [CH16] (H-CSATYSIPPQCYG-OH; disulfide 1-11; N-terminus and C-terminus assumed)	–	> 50	–	–
CC[C@H](C)[C@@H]1NC(=O)[C@H](CO)NC(=O)[C@H](Cc2ccc(O)cc2)NC(=O)[C@H]([C@@H](C)O)NC(=O)[C@H](C)NC(=O)[C@H]([C@@H](C)O)NC(=O)CNC(=O)[C@@H](N)CSSC[C@@H](C(=O)N[C@@H](Cc2ccc(O)cc2)C(=O)NCC(=O)O)NC(=O)[C@H](CCC(N)=O)NC(=O)[C@@H]2CCCN2C(=O)[C@@H]2CCCN2C1=O [CH22] (H-CGTATYSIPPQCYG-OH; disulfide 1-12; N-terminus and C-terminus assumed)	–	> 50	–	–
CC[C@H](C)[C@@H]1NC(=O)[C@@H]2CCCN2C(=O)[C@@H]2CCCN2C(=O)[C@H]([C@@H](C)CC)NC(=O)[C@H](CO)NC(=O)[C@H](Cc2ccccc2)NC(=O)[C@H]([C@@H](C)O)NC(=O)[C@@H](NC(=O)[C@@H](NC(=O)CN)[C@@H](C)O)CSSC[C@@H](C(=O)N[C@@H](CC(N)=O)C(=O)N2CCC[C@H]2C(=O)N[C@@H](CC(N)=O)C(=O)O)NC1=O [CH25] (H-GTCTFSIPPICNPN-OH; disulfide 3-11)	0.12	0.28	–	–
CC[C@H](C)[C@@H]1NC(=O)[C@@H]2CCCN2C(=O)[C@@H]2CCCN2C(=O)[C@H]([C@@H](C)CC)NC(=O)[C@H](CO)NC(=O)[C@H](Cc2ccccc2)NC(=O)[C@H]([C@@H](C)O)NC(=O)[C@@H](NC(=O)[C@@H](NC(=O)CN)[C@@H](C)O)CSSC[C@@H](C(=O)N[C@@H](CC(N)=O)C(=O)O)NC1=O [CH26] (H-GTCTFSIPPICN-OH; disulfide 3-11; C-terminus assumed)	–	–	good inhibitory activity	–
CC[C@H](C)[C@@H]1NC(=O)[C@@H]2CCCN2C(=O)[C@@H]2CCCN2C(=O)[C@H]([C@@H](C)CC)NC(=O)[C@H](CO)NC(=O)[C@H](Cc2ccccc2)NC(=O)[C@H]([C@@H](C)O)NC(=O)[C@H](C)NC(=O)[C@H]([C@@H](C)O)NC(=O)CNC(=O)[C@@H](N)CSSC[C@@H](C(=O)N[C@@H](CC(N)=O)C(=O)O)NC1=O [CH27] (H-CGTATFSIPPICN-OH; disulfide 1-12; N-terminus and C-terminus assumed)	2.88	6.66	certain inhibitory activity	Residual activity of chymotrypsin (peptide 0.01 μM): 102.7 ± 2.4%; Residual activity of chymotrypsin (peptide 0.1 μM): 105.3 ± 0.9%; Residual activity of chymotrypsin (peptide 1 μM): 106.0 ± 0.7%; Residual activity of chymotrypsin (peptide 3 μM): 86.8 ± 1.5%; Residual activity of chymotrypsin (peptide 6 μM): 64.9 ± 3.1%; Residual activity of chymotrypsin (peptide 10 μM): 26.2 ± 2.4%; Residual activity of chymotrypsin (peptide 25 μM): 15.5 ± 0.3%; Residual activity of chymotrypsin (peptide 100 μM): 2.9 ± 0.3%; Residual activity of chymotrypsin (peptide 300 μM): 1.2 ± 0.0%; Residual activity of chymotrypsin (peptide 1000 μM): 0.7 ± 0.1%
CC[C@H](C)[C@@H]1NC(=O)[C@H](CO)NC(=O)[C@H](Cc2ccc(O)cc2)NC(=O)[C@H]([C@@H](C)O)NC(=O)[C@H](C)NC(=O)[C@H](CO)NC(=O)CNC(=O)CNC(=O)[C@@H](N)CSSC[C@@H](C(=O)N[C@@H](Cc2ccc(O)cc2)C(=O)O)NC(=O)[C@H](CCC(N)=O)NC(=O)[C@@H]2CCCN2C(=O)[C@@H]2CCCN2C1=O [CH29] (H-CGGSATYSIPPQCY-OH; disulfide 1-13; N-terminus and C-terminus assumed)	–	> 50	–	–

Now from value to compound, other results behind:

Ki [µM]	IC50 [µM]	inhibitory activity against chymotrypsin (in words)	Structure (SMILES)	also measured
1.99	4.6	–	CC[C@H](C)[C@@H]1NC(=O)[C@H](CO)NC(=O)[C@H](Cc2ccc(O)cc2)NC(=O)[C@H]([C@@H](C)O)NC(=O)[C@H](C)NC(=O)[C@H](CO)NC(=O)CNC(=O)[C@@H](N)CSSC[C@@H](C(=O)N[C@@H](Cc2ccc(O)cc2)C(=O)NCC(=O)O)NC(=O)[C@H](CCC(N)=O)NC(=O)[C@@H]2CCCN2C(=O)[C@@H]2CCCN2C1=O [CH15] (H-CGSATYSIPPQCYG-OH; disulfide 1-12; N-terminus and C-terminus assumed)	–
4.87	11.3	–	CC[C@H](C)[C@@H]1NC(=O)[C@H](CO)NC(=O)[C@H](CC(C)C)NC(=O)[C@H]([C@@H](C)O)NC(=O)[C@@H](NC(=O)[C@@H](N)Cc2ccccc2)CSSC[C@@H](C(=O)N[C@@H](Cc2ccc(O)cc2)C(=O)NCC(=O)O)NC(=O)[C@H](CCC(N)=O)NC(=O)[C@@H]2CCCN2C(=O)[C@@H]2CCCN2C1=O [CH19] (H-FCTLSIPPQCYG-OH; disulfide 2-10; N-terminus and C-terminus assumed)	–
7.1	16.4	–	CC[C@H](C)[C@@H]1NC(=O)[C@@H]2CCCN2C(=O)[C@@H]2CCCN2C(=O)[C@H]([C@@H](C)CC)NC(=O)[C@H](CO)NC(=O)[C@H](Cc2ccc(O)cc2)NC(=O)[C@H](CC(C)C)NC(=O)[C@@H](NC(=O)[C@H](CCCCN)NC(=O)CN)CSSC[C@@H](C(=O)N[C@@H](Cc2ccccc2)C(=O)N2CCC[C@H]2C(=O)N[C@@H](CC(N)=O)C(=O)O)NC1=O [CH20] (H-GKCLYSIPPICFPN-OH; disulfide 3-11; N-terminus and C-terminus assumed)	–
–	> 50	–	CC[C@H](C)[C@@H]1NC(=O)[C@H](CO)NC(=O)[C@H](Cc2ccc(O)cc2)NC(=O)[C@H]([C@@H](C)O)NC(=O)[C@H](C)NC(=O)[C@H](CC(N)=O)NC(=O)CNC(=O)[C@@H](N)CSSC[C@@H](C(=O)N[C@@H](Cc2ccc(O)cc2)C(=O)NCC(=O)O)NC(=O)[C@H](CCC(N)=O)NC(=O)[C@@H]2CCCN2C(=O)[C@@H]2CCCN2C1=O [CH21] (H-CGNATYSIPPQCYG-OH; disulfide 1-12; N-terminus and C-terminus assumed)	–
1.86	4.31	good inhibitory activity	CC[C@H](C)[C@@H]1NC(=O)[C@H](CO)NC(=O)[C@H](Cc2ccc(O)cc2)NC(=O)[C@H]([C@@H](C)O)NC(=O)[C@H](C)NC(=O)[C@H](CO)NC(=O)CNC(=O)[C@@H](N)CSSC[C@@H](C(=O)N[C@H](C(=O)NCC(=O)O)C(C)C)NC(=O)[C@H](CCC(N)=O)NC(=O)[C@H](C)NC(=O)[C@@H]2CCCN2C1=O [CH23] (H-CGSATYSIPAQCVG-OH; disulfide 1-12; N-terminus and C-terminus assumed)	–
2.65	6.14	good inhibitory activity	CC[C@H](C)[C@@H]1NC(=O)[C@H](CO)NC(=O)[C@H](Cc2ccc(O)cc2)NC(=O)[C@H]([C@@H](C)O)NC(=O)[C@H](C)NC(=O)[C@H](CO)NC(=O)CNC(=O)[C@@H](N)CSSC[C@@H](C(=O)N[C@@H](Cc2ccccc2)C(=O)NCC(=O)O)NC(=O)[C@H](CCCCN)NC(=O)[C@H](C)NC(=O)[C@@H]2CCCN2C1=O [CH24] (H-CGSATYSIPAKCFG-OH; disulfide 1-12; N-terminus and C-terminus assumed)	–
–	> 50	–	CC[C@H](C)[C@@H]1NC(=O)[C@H](Cc2ccc(O)cc2)NC(=O)[C@H](C)NC(=O)[C@H](CCSC)NC(=O)[C@H](C)NC(=O)[C@H](CCC(=O)O)NC(=O)CNC(=O)[C@@H]2CCCN2C(=O)[C@@H](N)CSSC[C@@H](C(=O)N[C@@H](Cc2ccccc2)C(=O)O)NC(=O)[C@H](CO)NC(=O)[C@H](CCCNC(=N)N)NC1=O [CH28] (H-CPGEAMAYIRSCF-OH; disulfide 1-12; N-terminus and C-terminus assumed)	–
